From US6716588B2, “System for cell-based screening” (Cellomics, Inc., priority 1999, dated 2004)

Tests used:
PC-3 cells = assay: Cell spreading assay, PC-3 cells; format: cell-based, human; conditions: for ability of cells to spread (percentage of cells with Cyto minus NucArea above threshold): PC-3 on type I collagen, 3 hours
Description: (§1) Compounds that interfere with metastasis of prostate carcinoma cells were screened as follows. PC3 human prostate carcinoma cells (ATCC # CRL 1435) were cultured in media with appropriate stimulants and passaged to collagen coated 96 well plates. Similar experiments were also conducted with MDA-MB231, a breast carcinoma cell line (ATCC # HTB-26), A549 human lung carcinoma cell line (ATCC # CCL 185), and primary HMVEC-d human skin microvessel endothelial cells (Clonetics Walkersville, Md.
(§2) Conditions in which cell spreading could be augmented or diminished were tested in various ways, including plating the cells on collagen coated (various concentrations) or collagen free substrates, varying the time of cell spreading prior to analysis, and plating cells in the presence of chemical modulators. After two hours, cells were fixed and stained with ALEXA™ 488 phalloidin (Molecular Probes) and Hoechst 33342 as per the protocol for cellular hypertrophy. The size of cells under these various conditions, as measured by cytoplasmic staining, was distinguished from background levels. The number of cells per field was determined by measuring the number of nuclei stained with the Hoechst DNA dye. The area per cell was found by dividing the cytoplasmic area (phalloidin image) by the cell number (Hoechst image).

A549 cells [1] = assay: Cell movement (motility) of A549 cells; format: cell-based, human; conditions: for stimulation of movement by matrix protein: A549 cells plated on matrix protein; for inhibition of cell movement (motility): 10 μM
Description: (§3) To illustrate how cell spreading is a unique functional event that can be distinguished from attachment and motility by drug effects, we performed the following experiments. A549 cancer cells were allowed to spread on a collagen I coated substrate for 3 hours, and then were fixed and stained with rhodamine phalloidin. The number of cells that spread beyond a selectable threshold area was measured as a function of increasing concentrations of cytochalasin D. While cells normally spread to a size much larger than the nucleus in this time interval, cytochalasin D maintained cells in a tight rounded morphology not much larger than the nucleus. The movement of A549 cells was measured at 18 hours after plating. At a concentration of 0.5 μM, cytochalasin D prevented spreading of 80% of cells but permitted movement of 70% of cells. Cytochalasin had no effect on adhesion to the substrate as measured by the number of cells that remain attached after a 3 hour incubation.
(§4) The spreading of cells is a function of the ligands and cell receptors that are employed, and plating cells on different immobilized ligands will selectively bind to matched cell surface receptors. A549 cells were plated on various matrix proteins and allowed to spread for 3 and for 5 hours. […] Thus ligand-dependent differences in the kinetics of cell spreading can be measured. In addition, strong differences in the activation of spreading were seen on different matrices. […] In contrast to spreading, cell motility presented a very different biological profile of these matrix proteins. […] In further experiments, cells were allowed to spread in the presence of various kinase inhibitors and the effect on cell spreading was determined.

A549 cells [2] = assay: Cell spreading assay, A549 cells; format: cell-based, human; conditions: for stimulation of spreading by matrix protein / completeness of cell spreading on matrix protein: A549 cells plated on matrix protein; for inhibition of cell spreading: 10 μM
Description: as §1, §2, §3, §4

L-929 cells = assay: High-content screen of drug-induced apoptosis, L-929 cells; format: cell-based, mouse
Description: (§5) Cell preparation. The cells chosen for this study were mouse connective tissue fibroblasts (L-929; ATCC CCL-1) and a highly invasive glioblastoma cell line (SNB-19; ATCC CRL-2219) (Welch et al., In Vitro Cell. Dev. Biol. 31:610, 1995). The day before treatment with an apoptosis inducing drug, 3500 cells were placed into each well of a 96-well plate and incubated overnight at 37° C. in a humidified 5% CO2 atmosphere. The following day, the culture medium was removed from each well and replaced with fresh medium containing various concentrations of paclitaxel (0-50 μM) from a 20 mM stock made in DMSO. The maximal concentration of DMSO used in these experiments was 0.25%. The cells were then incubated for 26 h as above. At the end of the paclitaxel treatment period, each well received fresh medium containing 750 nM MitoTracker Red (Molecular Probes; Eugene, Oreg.) and 3 μg/ml Hoechst 33342 DNA-binding dye (Molecular Probes) and was incubated as above for 20 min. Each well on the plate was then washed with HBSS and fixed with 3.7% formaldehyde in HBSS for 15 min at room temperature. The formaldehyde was washed out with HBSS and the cells were permeabilized for 90 s with 0.5% (v/v) Triton X-100, washed with HBSS, incubated with 2 U ml^−1 Bodipy FL phallacidin (Molecular Probes) for 30 min, and washed with HBSS. The wells on the plate were then filled with 200 μl HBSS, sealed, and the plate stored at 4° C. if necessary. The fluorescence signals from plates stored this way were stable for at least two weeks after preparation. As in the nuclear translocation assay, fluorescence reagents can be designed to convert this assay into a live cell high-content screen.
Image acquisition and analysis on the ArrayScan System. The fluorescence intensity of intracellular MitoTracker Red, Hoechst 33342, and Bodipy FL phallacidin was measured with the cell screening system as described supra. Morphometric data from each pair of images obtained from each well was also obtained to detect each object in the image field (e.g., cells and nuclei), and to calculate its size, shape, and integrated intensity.
Calculations and output. A total of 50-250 cells were measured per image field. For each field of cells, the following calculations were performed: (1) The average nuclear area (μm^2) was calculated by dividing the total nuclear area in a field by the number of nuclei detected. (2) The average nuclear perimeter (μm) was calculated by dividing the sum of the perimeters of all nuclei in a field by the number of nuclei detected in that field. Highly convoluted apoptotic nuclei had the largest nuclear perimeter values. (3) The average nuclear brightness was calculated by dividing the integrated intensity of the entire field of nuclei by the number of nuclei in that field. An increase in nuclear brightness was correlated with increased DNA content. (4) The average cellular brightness was calculated by dividing the integrated intensity of an entire field of cells stained with MitoTracker dye by the number of nuclei in that field. Because the amount of MitoTracker dye that accumulates within the mitochondria is proportional to the mitochondrial potential, an increase in the average cell brightness is consistent with an increase in mitochondrial potential. (5) The average cellular brightness was also calculated by dividing the integrated intensity of an entire field of cells stained with Bodipy FL phallacidin dye by the number of nuclei in that field. […]

SNB-19 cells = assay: High-content screen of drug-induced apoptosis, SNB-19 cells; format: cell-based
Description: as §5, with “Each well on the plate was then washed with HBSS and fixed with 3.7% formaldehyde in HBSS for 15 min at room temperature. The formaldehyde was washed out with HBSS and the cells were permeabilized for 90 s with 0.5% (v/v) Triton X-100, washed with HBSS, incubated with 2 U ml^−1 Bodipy FL phallacidin (Molecular Probes) for 30 min, and washed with HBSS. The wells on the plate were then filled with 200 μl HBSS, sealed, and the plate stored at 4° C. if necessary.” left out
Image acquisition and analysis on the ArrayScan System. The fluorescence intensity of intracellular MitoTracker Red, Hoechst 33342, and Bodipy FL phallacidin was measured with the cell screening system as described supra. […]
Calculations and output. A total of 50-250 cells were measured per image field. For each field of cells, the following calculations were performed: (1) The average nuclear area (μm^2) was calculated by dividing the total nuclear area in a field by the number of nuclei detected. (2) The average nuclear perimeter (μm) was calculated by dividing the sum of the perimeters of all nuclei in a field by the number of nuclei detected in that field. […] (3) The average nuclear brightness was calculated by dividing the integrated intensity of the entire field of nuclei by the number of nuclei in that field. […]

[3] = system: NF-KB transcription factor; assay: Cytoplasm to nucleus translocation screen of NF-KB (NucCyt Difference); format: cell-based, human; conditions: titrated in the presence of IL-1α
Description: The distribution of the transcription factor is determined by labeling the nuclei with a DNA specific fluorophore like […] and the transcription factor with a specific fluorescent antibody. After autofocusing on the Hoechst labeled nuclei, an image of the nuclei is acquired in the cell-based screening system and used to create a mask by one of several optional thresholding methods, as described supra. The morphological descriptors of the regions defined by the mask are compared with the user defined parameters and valid nuclear masks are identified and used with the following method to extract transcription factor distributions. Each valid nuclear mask is eroded to define a slightly smaller nuclear region. The original nuclear mask is then dilated in two steps to define a ring shaped region around the nucleus, which represents a cytoplasmic region. The average antibody fluorescence in each of these two regions is determined, and the difference between these averages is defined as the NucCyt Difference. […] Using these two sampling regions, data on nuclear translocation can be automatically analyzed by the cell-based screening system on a cell by cell basis. […]

O=C(O)CN(CCN(CC(=O)O)CC(=O)O)CC(=O)O [EDTA]
cell adherence (PC-3 cells; PC-3 cells, 50 mM): inhibited cell adherence | cell spreading (PC-3 cells; PC-3 cells, 50 mM): inhibited cell spreading

fibronectin
stimulation of movement by matrix protein (A549 cells [1]): minimally stimulated movement | stimulation of spreading by matrix protein (A549 cells [2]): maximally stimulated spreading | completeness of cell spreading on matrix protein (A549 cells [2]; 3 hours): incomplete

O=c1c(-c2ccc(O)cc2)coc2cc(O)cc(O)c12 [genistein]
inhibition of cell movement (motility) (A549 cells [1]): ineffective | inhibition of cell spreading (A549 cells [2]): ineffective

CC(=O)O[C@H]1C(=O)[C@@]2(C)[C@H]([C@H](OC(=O)c3ccccc3)[C@]3(O)C[C@H](OC(=O)[C@H](O)[C@@H](NC(=O)c4ccccc4)c4ccccc4)C(C)=C1C3(C)C)[C@]1(OC(C)=O)CO[C@@H]1C[C@@H]2O [paclitaxel]
concentration of maximal response in many parameters (L-929 cells; L-929 cells, 26 h): 5 µM | mitochondrial potential (L-929 cells; L-929 cells, any of the concentrations tested (0-50 μM)): did not show a sharp decrease | sensitivity to low concentrations compared with SNB-19 cells (L-929 cells; L-929 cells, each parameter measured): less sensitive | nuclear morphology (L-929 cells; L-929 cells, increasing amounts of paclitaxel): caused nuclei to enlarge and fragment | dose of maximal response, L-929 relative to SNB-19 cells (L-929 cells; L-929 vs SNB-19): 500 fold | mitochondrial potential (SNB-19 cells; 10 nM paclitaxel, 26 h): minimal | concentration at which area, brightness, fragmentation of the nucleus and actin polymerization reached a maximum value (SNB-19 cells; 26 h): 10 nM | all the parameters measured at increasing concentrations (SNB-19 cells; >10 nM paclitaxel): approached control levels

laminin
stimulation of movement by matrix protein (A549 cells [1]): maximally stimulated movement | stimulation of spreading by matrix protein (A549 cells [2]): minimally stimulating spreading | completeness of cell spreading on matrix protein (A549 cells [2]; 3 hours): complete by 3 hours

CN([C@@H](Cc1ccc(OS(=O)(=O)c2cccc3cnccc23)cc1)C(=O)N1CCN(c2ccccc2)CC1)S(=O)(=O)c1cccc2cnccc12 [KN-62]
inhibition of cell movement (motility) (A549 cells [1]): ineffective | inhibition of cell spreading (A549 cells [2]): ineffective

IL-1RA: an antagonist to the receptor for IL-1
inhibition of translocation induced by IL-1α [3]: progressively inhibiting the translocation

C=C1[C@@H](C)[C@H]2[C@H](Cc3ccccc3)NC(=O)[C@]23[C@H](OC(C)=O)/C=C/[C@@](C)(O)C(=O)[C@@H](C)C/C=C/[C@H]3[C@@H]1O [cytochalasin D]
cells permitted to move (A549 cells [1]; 0.5 μM, movement measured at 18 hours after plating): 70% | binding of cells to the substrate (PC-3 cells; cell line not given): did not affect binding of cells to the substrate | spreading on various substrates (PC-3 cells; cell line not given): prevented their spreading | cells prevented from spreading (A549 cells [2]; 0.5 μM, collagen I coated substrate, 3 hours): 80% | adhesion to the substrate (number of cells that remain attached) (A549 cells [2]; 3 hour incubation): no effect

Calphostin C
inhibition of cell movement (motility) (A549 cells [1]): equally effective at inhibiting cell spreading and movement | inhibition of cell spreading (A549 cells [2]): equally effective at inhibiting cell spreading and movement

collagen I: matrix protein used as substrate coating
stimulation of movement by matrix protein (A549 cells [1]): maximally stimulated both movement and spreading | time at which cell spreading was achieved (PC-3 cells; PC-3 cells on a defined collagen I matrix): 2 to 3 h | stimulation of spreading by matrix protein (A549 cells [2]): maximally stimulated both movement and spreading | completeness of cell spreading on matrix protein (A549 cells [2]; 3 hours): complete by 3 hours

C[S+](C)[O-] [DMSO]
ability of cells to spread (percentage of cells with Cyto minus NucArea above threshold) (PC-3 cells; DMSO 2.5%): significantly reduced | ability of cells to spread (percentage of cells with Cyto minus NucArea above threshold) (PC-3 cells; DMSO 5%): significantly reduced | ability of cells to spread (percentage of cells with Cyto minus NucArea above threshold) (PC-3 cells; DMSO at or below 1%): no effect
